Experimental data published in PMC13294191, “Oral peptide drug delivery: design of SEDDS providing a protective effect against intestinal membrane-bound enzymes” (Drug Delivery and Translational Research, 2025).
Where a SMILES comes first, the peptide text is derived from it.

Key:
[1] = biological target: T1, Aminopeptidase N from porcine kidney (Sus scrofa, UniProt P15145); test: Inhibitory activity of SEDDS and excipients towards isolated aminopeptidase N; type: biochemical; conditions: excipient (caprylic acid 20 µL or citronellol 10 µL) solubilized with 20 µL PEG-35 castor oil in HBS pH 6.5, 500 µL; 500 µL of 41.6 mU/mL enzyme; 5 mM L-Leucine-4-nitroanilide; 1 h, 37 °C, 400 rpm; n ≥ 3
T1 construct: purchased Merck KGaA (Darmstadt, Germany); host or cells: porcine kidney (tissue-derived enzyme suspension)
T1 sequence (P15145 1-963): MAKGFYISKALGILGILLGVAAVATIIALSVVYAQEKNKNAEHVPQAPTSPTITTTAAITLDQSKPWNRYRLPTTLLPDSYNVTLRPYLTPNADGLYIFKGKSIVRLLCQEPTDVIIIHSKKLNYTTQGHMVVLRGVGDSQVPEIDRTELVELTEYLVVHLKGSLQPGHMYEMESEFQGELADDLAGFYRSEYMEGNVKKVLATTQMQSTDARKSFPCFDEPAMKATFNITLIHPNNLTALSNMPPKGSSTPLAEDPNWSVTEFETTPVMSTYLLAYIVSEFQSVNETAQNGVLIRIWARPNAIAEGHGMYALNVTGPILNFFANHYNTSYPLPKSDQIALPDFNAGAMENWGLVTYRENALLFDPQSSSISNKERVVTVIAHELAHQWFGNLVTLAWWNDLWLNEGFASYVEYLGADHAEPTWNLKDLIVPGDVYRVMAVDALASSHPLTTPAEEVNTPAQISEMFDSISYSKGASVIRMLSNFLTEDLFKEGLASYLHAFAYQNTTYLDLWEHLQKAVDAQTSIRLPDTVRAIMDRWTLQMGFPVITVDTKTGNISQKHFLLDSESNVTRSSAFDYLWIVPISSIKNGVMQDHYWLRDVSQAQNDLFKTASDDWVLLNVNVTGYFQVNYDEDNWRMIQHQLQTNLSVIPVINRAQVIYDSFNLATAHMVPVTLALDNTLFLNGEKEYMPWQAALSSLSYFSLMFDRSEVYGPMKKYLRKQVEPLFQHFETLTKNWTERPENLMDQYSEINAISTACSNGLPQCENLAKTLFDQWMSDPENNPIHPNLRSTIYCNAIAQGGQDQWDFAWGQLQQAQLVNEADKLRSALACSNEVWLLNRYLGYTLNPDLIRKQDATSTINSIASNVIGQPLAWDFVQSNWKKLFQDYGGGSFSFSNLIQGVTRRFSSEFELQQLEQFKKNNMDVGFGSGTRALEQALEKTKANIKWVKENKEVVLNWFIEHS
Method: Furthermore, a possible inhibitory effect of SEDDS and excipients on aminopeptidase N activity was investigated using the isolated enzyme, following a method previously described with slight modifications [28]. Surfactant solutions were prepared in 20 mM HBS pH 6.5 in the same concentration as they are present in SEDDS. Either 5% (v/v) SEDDS or surfactant solution were mixed in 500 µL together with further 500 µL of a 41.6 mU/mL enzyme solution in 20 mM HBS pH 6.5. L-Leucine- 4-nitroanilide was added prior to SEDDS and surfactant solution in a final concentration of 5 mM.
A 5 mM substrate solution served as the positive control, representing 100% enzyme activity. The samples were incubated on a thermomixer for 1 h at 37 °C and 400 rpm agitation. To stop the enzymatic reaction, 1 mL of methanol containing 2% (v/v) TFA were added to each sample. After centrifugation at 12,500 rpm, the concentration of 4-nitroaniline in the supernatant was quantified. The inhibitory activity was calculated using the following Eq. (5):5 Inhibitoryactivity[%]=100-Abssample/Abspositivecontrol×100

[2] = pH 6.5
Method: The rat intestine was carefully cleaned to remove its intestinal contents and then cut into 1.5 cm sections. These sections were fixed in Ussing chambers with a surface area of 0.64 cm^2 and 1 mL of 20 mM HBS pH 6.5 was added to each acceptor chamber, while the donor chambers were filled with 1 mL of 5% (v/v) SEDDS in 20 mM HBS pH 6.5, facing the luminal side of the intestine.
The Ussing chambers were incubated in a water bath at 37 °C, and every 1 h, 100 µL aliquots were withdrawn from the acceptor chambers over a 4 h period. Withdrawn samples were replaced with pre-warmed HBS to maintain sink conditions. The concentration of permeated tuftsin in the collected aliquots was determined via HPLC and the apparent permeability coefficient [30]was subsequently calculated using the following Eq. (6):6 Papp[cms^-1]=Q[μg]/Acm^2cμgmL^-1t[s] where Papp is the apparent permeability coefficient, Q is the total amount of test substance permeated through the mucosa, A is the diffusion area of the Ussing chamber system, c is the initial concentration of tuftsin in the donor compartment and t is the total time of experiment.

[3] = biological target: T2, membrane-bound aminopeptidase N on rat intestinal mucosa (Rattus norvegicus, UniProt P15684)
T2 sequence (P15684 1-965): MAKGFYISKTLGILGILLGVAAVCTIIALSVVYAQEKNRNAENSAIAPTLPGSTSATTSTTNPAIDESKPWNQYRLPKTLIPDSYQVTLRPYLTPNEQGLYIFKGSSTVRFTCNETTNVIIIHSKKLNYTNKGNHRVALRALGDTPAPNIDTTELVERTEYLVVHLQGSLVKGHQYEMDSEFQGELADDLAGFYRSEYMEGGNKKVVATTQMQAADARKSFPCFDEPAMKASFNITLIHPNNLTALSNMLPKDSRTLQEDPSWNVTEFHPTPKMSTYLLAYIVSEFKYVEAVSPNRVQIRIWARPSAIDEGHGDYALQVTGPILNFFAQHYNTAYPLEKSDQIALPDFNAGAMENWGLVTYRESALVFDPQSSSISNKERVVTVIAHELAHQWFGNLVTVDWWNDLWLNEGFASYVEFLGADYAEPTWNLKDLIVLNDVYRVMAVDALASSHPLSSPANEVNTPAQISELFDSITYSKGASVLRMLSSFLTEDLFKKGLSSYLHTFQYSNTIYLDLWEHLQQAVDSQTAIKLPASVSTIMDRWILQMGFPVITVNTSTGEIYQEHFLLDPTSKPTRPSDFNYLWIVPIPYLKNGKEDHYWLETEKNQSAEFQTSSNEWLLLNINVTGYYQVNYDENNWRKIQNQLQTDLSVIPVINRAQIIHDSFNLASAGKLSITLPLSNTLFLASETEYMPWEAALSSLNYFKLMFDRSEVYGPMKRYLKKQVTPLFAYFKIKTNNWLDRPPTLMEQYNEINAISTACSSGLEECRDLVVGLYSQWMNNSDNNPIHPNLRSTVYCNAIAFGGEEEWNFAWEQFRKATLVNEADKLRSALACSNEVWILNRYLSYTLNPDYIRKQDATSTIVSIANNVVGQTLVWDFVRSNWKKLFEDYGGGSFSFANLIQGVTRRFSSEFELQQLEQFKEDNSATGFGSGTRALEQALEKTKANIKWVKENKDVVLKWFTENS
Method: Rat intestine was obtained freshly from male Sprague–Dawley rats (200–300 g) supplied by Janvier Labs (Saint Berthevin, France). The middle section of the small intestine was longitudinally dissected and thoroughly washed with HBS pH 6.5 to remove intestinal contents. The intestine was stored at − 20 °C in HBS until further use.
After thawing the small intestine was cut into 1 × 1 cm pieces that were placed in tubes containing 500 µL of HBS. SEDDS with dissolved HIP were emulsified in a concentration of 10% (v/v) in HBS. 500 µL of nanoemulsions were added to each tube to obtain a final concentration of 5% (v/v) SEDDS. Thereafter, samples were incubated on a thermomixer at 37 °C with continuous agitation at 400 rpm. Over a 4 h time period, 100 µL aliquots were withdrawn from each sample at predefined time intervals. To terminate the enzymatic reaction, an equal volume of methanol containing 2% (v/v) TFA was added to each aliquot. Subsequently, the concentration of tuftsin in the supernatant was quantified using HPLC.

Inhibitory activity of single SEDDS-3 excipients towards aminopeptidase N [1] [%] | Apparent permeability coefficient (Papp) of tuftsin [2] | Tuftsin permeated after 4 h of cumulative permeation (% of initial tuftsin) [2] [%] | Time to entire degradation of the unformulated peptide (abstract) [3] [min] | SMILES
18 | – | – | – | CC(C)=CCCC(C)CCO (stereo not shown) [citronellol]
– | 0.8 × 10^–5 cm/s | 7 | ≤ 20 | C[C@@H](O)[C@H](N)C(=O)N[C@@H](CCCCN)C(=O)N1CCC[C@H]1C(=O)N[C@@H](CCCNC(=N)N)C(=O)O [tuftsin, Tuftsin] (H-TKPR-OH)
